Laboratory results reported in the SangsterLogP compilation.

Experiments:
[1] = method code RP-HPLC, from DOI: 10.1016/s0045-6535(96)00355-4

| Structure (SMILES) | logP [1] | logP |
| --- | --- | --- |
| CCNc1nc(NC(C)C)nc(OC)n1 | 2.29 | – |
| CCSC(=O)N(CC(C)C)CC(C)C | – | 3.45 |
| CCSC(=O)N(CC)C1CCCCC1 | – | 3.25 |
| OC(c1ccc(Cl)cc1)(c1ccc(Cl)cc1)C(Cl)(Cl)Cl | 4.93 | – |
| CCCSC(=O)N(CCC)CCC | – | 3.19 |
| CCc1cccc(CC)c1N(COC)C(=O)CCl | – | 2.95 |
| CCNc1nc(N)nc(Cl)n1 | 1.07 | – |
| CCCN(CCC)C(=O)SCC | – | 2.77 |
| Clc1ccc(C(c2ccccc2Cl)C(Cl)(Cl)Cl)cc1 (centres undefined) | – | 5.53 |
| CCOP(=S)(OCC)SCSC(C)(C)C | – | 3.98 |
| CCOP(=S)(OCC)Oc1ccc2c(C)c(Cl)c(=O)oc2c1 | – | 4.01 |
| CCSC(=O)N1CCCCCC1 | – | 2.49 |
| CCCCN(CC)C(=O)SCCC | – | 3.27 |
| CCNc1nc(NC(C)(C)C)nc(OC)n1 | 2.95 | – |
| Clc1ccc(C(c2ccccc2Cl)C(Cl)Cl)cc1 (centres undefined) | – | 5.34 |
| ClC(Cl)=C(c1ccc(Cl)cc1)c1ccccc1Cl | – | 5.45 |
| COP(=O)(OC)O/C(=C\Cl)c1cc(Cl)c(Cl)cc1Cl | – | 3.87 |
| CC(C)N(C(=O)CCl)c1ccccc1 | 2.36 | – |
| CCC(CC)Nc1c([N+](=O)[O-])cc(C)c(C)c1[N+](=O)[O-] | 4.78 | – |
